US11040054B2, “Estrogen sensing through GPER1 regulates normal and malignant liver growth” (The Brigham and Women's Hospital, Inc., priority 2016, dated 2021)

Key:
zebrafish larvae liver = assay: Larval liver size analysis (ISH for fabp10a, fabp10a:GFP imaging) at 120 hpf; assay type: in vivo; conditions: for liver size at 120 hpf: compound alone, exposure 110-115 hpf; for liver size in gper1−/− mutants or gper1 morphants: gper1 loss of function larvae; for effect on E2-induced enhancement in liver size: co-exposure with E2 (or knockdown plus E2)
Method: Zebrafish larvae were exposed to chemicals, dissolved in 0.1% (v/v) dimethylsulfoxide (DMSO), at specified doses for 5 hrs. from 110-115 hours post fertilization (hpf) and analyzed at 120 hpf (unless otherwise specified). Adults were treated for 5-7 hrs. per exposure with frequency as described.
Larvae were fixed with paraformaldehyde and in situ hybridization (ISH) performed according to standard protocols.^16 gper1 probe was generously gifted by David Volz.^17
ISH images were obtained by brightfield microscopy, and fabp10a:GFP reporter larvae were imaged using fluorescence microscopy. 3D imaging of fabp10a:GFP fish was performed with a Zeiss LightsheetZ.1. […] were fixed and paraffin embedded. Tissues were sectioned (5 μm) and stained with hematoxylin & eosin (H&E). De-identified formalin-fixed paraffin-embedded human liver sections were obtained from pathology files of the University of Utah (IRB 00091019) and commercially available tissue arrays (OD-CT-DgLiv01-003, US Biomax). Immunohistochemistry (IHC) (using antibodies listed in Table 4) and terminal deoxynucleotidyl transferase dUTP nick-end labeling (TUNEL) staining were performed using established protocols.^16 GPER1 staining was scored by a pathologist based on the mean amount of cytoplasmic reactivity in hepatic cells: 0+, minimal/no staining; 1+, faint/mild staining; 2+, moderate staining; 3+, strong staining.

[1] = tested on: PI3K/Akt, MAPK/Erk and mTORC1 pathways; assay: Western blot analysis of whole larvae (p-Akt, p-Erk, p-S6); assay type: in vivo, zebrafish
Text: Pooled larvae (n=30-40) and cultured cells were homogenized in radioimmunoprecipitation assay (RIPA) lysis buffer and processed as previously described.^15 Lysates were separated by gel electrophoresis and subjected to Western blot.

fabp10a:GFP+ hepatocytes = conditions: zebrafish, in vivo
Method: To determine the cellular mechanism by which E2 enlarges liver size, cell cycle analysis was performed on propidium iodide-stained fabp10a:GFP^+ hepatocytes by flow cytometry (FIG. 3A).

[2] = tested on: hepatocytes in larval liver; conditions: for PCNA+ cells in the liver: compound alone, larvae
Method: ISH images were obtained by brightfield microscopy, and fabp10a:GFP reporter larvae were imaged using fluorescence microscopy. 3D imaging of fabp10a:GFP fish was performed with a Zeiss LightsheetZ.1. […] Tissues were sectioned (5 μm) and stained with hematoxylin & eosin (H&E).

[3] = tested on: regenerating larval liver; assay: Liver regeneration after metronidazole (Mtz) hepatocyte ablation in Tg(fabp10a:CFP-NTR) larvae
GPER1 = GPER1 (Homo sapiens, UniProt Q99527); conditions: cited from earlier work
GPER1, sequence (Q99527 whole entry): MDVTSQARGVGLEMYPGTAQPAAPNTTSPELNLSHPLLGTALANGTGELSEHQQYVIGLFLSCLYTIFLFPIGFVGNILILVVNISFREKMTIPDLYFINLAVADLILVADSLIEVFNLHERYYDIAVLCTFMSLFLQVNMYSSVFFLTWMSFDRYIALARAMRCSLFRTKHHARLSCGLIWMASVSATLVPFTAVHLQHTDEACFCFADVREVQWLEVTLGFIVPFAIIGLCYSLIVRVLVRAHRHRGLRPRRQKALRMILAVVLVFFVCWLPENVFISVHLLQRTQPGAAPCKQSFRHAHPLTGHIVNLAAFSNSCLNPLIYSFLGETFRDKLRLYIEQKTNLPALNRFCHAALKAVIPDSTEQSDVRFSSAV

HepG2 cells = assay: HepG2 signaling immunoblot (p-Akt, p-S6); conditions: G15 500 nM co-exposure with E2 10 nM
Method: HepG2 cells (Sigma-Aldrich, USA) were cultured in phenol-red free, Minimum Essential Medium Eagle (MEM) supplemented with 10% heat-inactivated fetal bovine serum (Hyclone, Thermo Scientific, USA), L-glutamine (2 mM), 1% non-essential amino acids and penicillin-streptomycin (10,000 U/mL), at 37° C. and 5% CO2.

[4] = tested on: liver tumors in DMBA-exposed WT zebrafish; assay: DMBA chemical carcinogenesis followed by chemical prevention trial
Method: gper1^−/− or wild-type fry were exposed to 5 ppm dimethylbenzanthrazene (DMBA) for 24 hrs. at 3, 4, and 5 weeks.^19 Fish recovered for 1 week prior to longitudinal chemical exposures commencing at 6 weeks (3 times/week). Fish were monitored daily for survival and tumor formation until 33 weeks post DMBA treatment. Fish were either analyzed immediately after death or at 33 weeks post DMBA exposure, when all remaining fish were sacrificed. Histologic analysis was performed by a board-certified pathologist with expertise in zebrafish liver histology in a blinded fashion.

hepatic lesions = conditions: in vivo; cited from earlier work

Question: What does the source list for 740Y-P?
Answer: larvae with increased liver size (zebrafish larvae liver; WT larvae, 120 hpf, larvae with phenotype out of total observed): 77%; liver size at 120 hpf (zebrafish larvae liver; WT larvae): increased liver size; liver size in gper1−/− mutants or gper1 morphants (zebrafish larvae liver; 120 hpf): rescued liver growth; gper1 morphants with small liver phenotype rescued (zebrafish larvae liver; gper1 morphants, 120 hpf): 61%; p-Akt in gper1−/− mutants ([1]; gper1−/− whole larvae): restored to WT levels

Question: Which results are given for CC(=O)c1ccc2c(c1)C1C=CCC1C(c1cc3c(cc1Br)OCO3)N2 (stereo not shown) [G-1]?
Answer: liver size at 120 hpf (zebrafish larvae liver; WT larvae): increased liver size; liver size in gper1−/− mutants or gper1 morphants (zebrafish larvae liver; 120 hpf): did not respond; liver size in hypomorphic mtor mutants (zebrafish larvae liver; mtor mutants, 120 hpf): did not change; phosphorylated S6 (p-S6) ([1]; WT whole larvae): increased phosphorylated S6; hepatocytes in G2/M phase (fabp10a:GFP+ hepatocytes): 9.4%; hepatocytes in S phase (fabp10a:GFP+ hepatocytes): 21.8%; total hepatocyte number by FACS (fabp10a:GFP+ hepatocytes): increased; PCNA+ cells in the liver [2]: fractional increase; liver size at 30 hpT after Mtz ablation ([3]; WT larvae, chemical incubation for 5 hours, vs controls): significantly larger liver size; liver regrowth after ablation in gper1−/− mutants ([3]; gper1−/− larvae): not enhanced; liver regrowth after ablation in mtor−/− mutants ([3]; mtor−/− larvae): not impacted

Question: Which results are given for O=c1cc(N2CCOCC2)oc2c(-c3ccccc3)cccc12 [LY292002]?
Answer: larvae with decreased liver size (zebrafish larvae liver; 120 hpf, larvae with phenotype out of total observed): 72%; larvae in which estrogenic effect on liver size was blocked (zebrafish larvae liver; co-treatment of E2 and LY292002, WT larvae, 120 hpf): 86%

Question: Which “action on GPER1” value (GPER1) does the source give for CC/C(=C(\c1ccc(O)cc1)c1ccc(OCCN(C)C)cc1)c1ccccc1 [4-OHT] here?
Answer: activated

Question: For C[C@]12CC[C@@H]3c4ccc(O)cc4C[C@@H](CCCCCCCCC[S+]([O-])CCCC(F)(F)C(F)(F)F)[C@H]3[C@@H]1CC[C@@H]2O (stereo partly shown) [fulvestrant], which “action on GPER1” value (GPER1) is on record?
Answer: activated

Question: Which “effect on E2-induced enhancement in liver size” value (zebrafish larvae liver; WT larvae, 120 hpf) does the source give for NC1(c2ccc(-c3nc4ccn5c(=O)[nH]nc5c4cc3-c3ccccc3)cc2)CCC1 [MK-2206] here?
Answer: diminished this effect

Question: And the “liver size at 120 hpf” value (zebrafish larvae liver; WT larvae)?
Answer: decreased liver size

Question: For Brc1cc2c(cc1[C@@H]1Nc3ccccc3[C@@H]3C=CC[C@@H]31)OCO2 (racemic) [G-15, (3aS,4R,9bR)-4-(6-Bromo-1,3-benzodioxol-5-yl)-3a,4,5,9b-3H-cyclopenta[c]quinoline], which “effect on E2-induced enhancement in liver size” value (zebrafish larvae liver; WT larvae, 120 hpf) is on record?
Answer: specifically inhibited

Question: What about the “liver size at 120 hpf” value (zebrafish larvae liver; WT larvae) of the same compound?
Answer: reduced liver size

Question: And the “hepatocytes in G2/M phase” value (fabp10a:GFP+ hepatocytes)?
Answer: 2.9%

Question: What about the “hepatocytes in S phase” value (fabp10a:GFP+ hepatocytes) of the same compound?
Answer: 16.2%

Question: And the “PCNA+ cells in the liver” value [2]?
Answer: decreased

Question: And the “effect on E2-induced increase in PCNA+ hepatocytes” value ([2]; zebrafish, in vivo)?
Answer: inhibited

Question: What about the “effect on E2-associated increases in p-Akt and p-S6” value (HepG2 cells) of the same compound?
Answer: blocked

Question: And the “impact of blockade on E2-induced tumor size, sex-stratified” value ([4]; E2+G-15, male vs female fish)?
Answer: predominantly observed in male, less in female fish

Question: What about the “liver tumor size (mean)” value ([4]; E2+G-15 co-exposure, up until 9 mpf) of the same compound?
Answer: 0.4 mm

Question: For CC(C)(C#N)c1cc(Cn2cncn2)cc(C(C)(C)C#N)c1 [anastrozole], which “liver size at 120 hpf” value (zebrafish larvae liver; WT larvae) is on record?
Answer: decrease in liver size

Question: Which results are given for CC/C(=C(\c1ccccc1)c1ccc(OCCN(C)C)cc1)c1ccccc1 [tamoxifen]?
Answer: action on GPER1 (GPER1): agonist; size and number of hepatic lesions (hepatic lesions): increased the size and number of hepatic lesions
